Laboratory results from PMC9847679, “The anti-breast cancer stem cell properties of gold(I)-non-steroidal anti-inflammatory drug complexes” (Chemical Science, 2022).

Columns and labels:
[1] = tested on: murine 4T1 triple-negative breast cancer model; assay: Antitumour efficacy in murine 4T1 triple-negative breast cancer model; type: in vivo, BALB/c mice
Method: Mice. Female, 5-week-old BALB/c mice were purchased from Charles River Laboratories (Wilmington, MA). All mice were quarantined for one week before use and kept in micro - isolator cages (four mice per cage) in a temperature - and humidity-controlled environment a s per the Division of Laboratory Animal Research (DLAR) of University of Kentucky. All mice were maintained in a pathogen-free environment under the care of DLAR of University of Kentucky. Our study was performed in compliance with the NIH guidelines (NIH Publication No. 85-23 Rev. 1985) for the care and use of laboratory animals and all experimental procedures were monitored and approved by the Institutional Animal Care and Use Committee (IACUC) of University of Kentucky (USA).
In vivo studies with 1. Ten female BALB/c mice (5 weeks) were received from Charles River Laboratories (Wilmington, MA). […]
being implanted with 4T1 cells (1 million) subcutaneously on their right flank. Three days post-implantation, the mice were administered with 10 mg/kg of 1 intraperitoneally (IP), 0.1 mL/mouse formulated as 1% DMSO, 10% Kolliphor, and 89% PBS. The control group was injected with a PBS solution containing 1% DMSO and […]. The injection of 1, and […]
tumour-size and body-weight measurements were performed three days a week, and the mice were euthanised after 16 days (n = 5 for 1 and n = 5 for vehicle control). […]
Hematoxylin and eosin staining. The mice used in the in vivo comparative experiment of 1 and the vehicle control were sacrificed at day 16 post tumo ur cells (4T1) injection. The tissues (liver, kidney, and tumour) were fixed in freshly prepared paraformaldehyde (4% in PBS) for 24 h and processed for paraffin sectioning. Tissue sections of 5 µm were stained with hematoxylin and eosin and used for histological examination. A total of 3 sections per tissue (spanning the full depth of the tissue) were examined and photographed using a Nikon

[2] = tested on: MDA-MB-468 cells; assay: Monolayer cytotoxicity (MTT assay), MDA-MB-468 cells; type: cell-based, human; conditions: 72 h incubation
Excerpt: Cell Lines and Cell Culture Conditions. The human mammary epithelial HMLER and HMLER-shEcad cell lines were kindly donated by Prof. R. A. Weinberg (Whitehead Institute, MIT). The human epithelial breast MCF10A, breast adenocarcinoma MDA-MB-231 and MDA-MB-468, murine epithelial breast 4T1, and embryonic kidney HEK 293 cell lines were acquired from American Type Culture Collection (ATCC, Manassas, VA, USA).
HMLER, HMLER-shEcad, and MCF10A cells were maintained in Mammary Epithelial Cell Growth Medium (MEGM) with supplements and growth factors (BPE, hydrocortisone, hEGF, insulin, and gentamicin/amphotericin-B). MDA-MB-231, MDA-MB-468, 4T1, and HEK 293 cells were maintained in Dulbecco's Modified Eagle's Medium (DMEM) supplemented with fetal bovine serum (10 %) and penicillin/streptomycin (1 %). The cells were grown at 310 K in a humidified atmosphere containing 5% CO2.
Monolayer Cytotoxicity Studies. Exponentially growing cells were seeded at a density of approximately 5 × 10^3 cells per well in 96-well flat-bottomed microplates and allowed to attach for 24 h prior to addition of compounds. Various concentrations of the test compounds (0.0004-100 μM) were added and incubated for 72 h at 37 °C (total volume 200 μl). Stock solutions of the compounds were prepared as 10 mM DMSO solutions and diluted using cell […]
media. The final concentration of DMSO in each well was ≤1 %. After 72 h, 20 μl of MTT (4 mg mL-1 in PBS) was added to each well and the plates incubated for an additional 4 h at 37 °C. The media/MTT mixture was eliminated and DMSO (100 μl per well) was added to dissolve the formazan precipitates. The optical density was measured at 550 nm using a 96-well multiscanner autoreader. Absorbance values were normalised to (DMSO-containing) control wells and plotted as concentration of test compound versus % cell viability. IC50 values were interpolated from the resulting dose dependent curves. The reported IC50 values are the average of three independent experiments (n = 18). […]
Cellular Uptake. […]

[3] = 10 mg kg−1 intraperitoneally three times a week, 16 days, vs vehicle
[4] = day 16, compared to control group

## COc1ccc2c(c1)c(CC(=O)[O][Au][PH](c1ccccc1)(c1ccccc1)c1ccccc1)c(C)n2C(=O)c1ccc(Cl)cc1 [complex 1]
[1]; [3]
  body weight: maintained their body weight
  tumour growth: significant tumour growth inhibition
[1]; [4]
  cellularity in kidney or liver tissue (H&E histology): no alteration to cellularity
  cellularity in tumour tissue (H&E histology): Reduced cellularity
[2]
  IC50: 4.47 ± 0.17 µM
